Source: article PMC12772312, “The MAB_3513c gene plays a key role in intrinsic resistance of Mycobacterium abscessus to isoniazid and ethionamide” (Microbiology Spectrum, 2025)

B1: Mycobacterium abscessus NADH pyrophosphatase NudC (MAB_3513c), wild type (enzyme)
chain: MTFRLRNIPLLSRVGLDRADELRSNPEELAKGWAEAGLITLDVRGRVNIVDGQVVIEDAARIGDQPPEHAVFLGRIPGGRHVWAVRADLDEDSAPLLDLRRSGQLFDDTSAALLATAMAMLAWHDNAGYSPVDGSPTIPAKGGWVRVNSATGQEEFPRTDPAIICLVHDGGDRAVLGRQKFWPERMFSLLAGFVEAGESLEACVAREVAEEVGLTVTDVQYLGSQPWPFPRSIMLGFHAIGDPSQPFAFNDGEIAEADWFTRAEVRSALEAGDWTTASDSRLMLPGSISIAREIVESWAYAGEEPPAGRP
notes: NADH pyrophosphatase NudC of Mycobacterium abscessus, gene MAB_3513c (nudC); The strain used in the study is M. abscessus subsp. abscessus GZ002 (genome GenBank CP034181); also called Wt NudC; source: E. coli BL21 (λDE3), pET-28a, purified (his-tag protein purification kit)

Columns and labels:
[1] = target: T1, NudC (NudC^Mab; MAB_3513c) (Mycobacteroides abscessus, UniProt A0A0U1C370); test: HPLC/MS of metabolite extracts, wild type versus nudC deletion strain; format: cell-based; conditions: adduct formed in cells from ethionamide (256 ug/mL, 3 h, 37 C); no purified enzyme assay
T1 construct: native full-length protein in M. abscessus cells, compared with isogenic nudC deletion; functional homodimer

[2] = target: the molecule itself; test: SEC; HiLoad 16/600 Superdex 75 pg, 20 mM Tris-HCl (pH 7.5), 150 mM NaCl, 1 mM 1,4-dithiothreitol, 4°C, 1 mL/min; retention times compared to molecular weight standards

Molecule	HPLC/MS of metabolite extracts, wild type versus nudC deletion strain [1]	stoichiometry N [2]
CCc1cc(C(=O)C2C=CN([C@@H]3O[C@H](COP(=O)(O)OP(=O)(O)OC[C@H]4O[C@@H](n5cnc6c(N)ncnc65)[C@H](O)[C@@H]4O)[C@@H](O)[C@H]3O)C=C2C(N)=O)ccn1 (some centres unmarked) [ETH-NAD adduct]	nudC encodes a functional NudC that hydrolyzes ETH-NAD adduct	
B1		2
